Test results reported in patent publication US20120322060A1, “DIAGNOSIS AND MONITORING TREATMENT OF PSYCHIATRIC DISEASES WITH SPADIN AND RELATED METHODS” (CENTRE NATIONAL DE LE RECHERCHE SCIENTIFIQUE - CNRS -, priority 2011, published 2012).
No end group written: not given here.

How the values were obtained:
mice [1] = assay: Learned Helplessness (LH) test; format: in vivo, mouse; settings: acute i.v., 10^-6 M, shocked mice
Experimental: LH training was carried out in 2-way shuttle plexiglas boxes (Imetronic). Each box was divided in 2 equal compartments (19.5×10×13 cm) separated by a wall equipped with, a gate (4.7×4.7 cm) that was closed during LH training but opened automatically during shuttle escape testing. LH was induced in shocked group by administering 360 inescapable, 2-s duration footshocks (0.3 mA intensity), administered once every 10 s over a 1-hour session. Scrambled shocks were delivered by a source shock to a grid floor, which was made of stainless steel bars 2 mm in diameter, spaced 4 mm apart. […] 24 hours later, escape testing was performed in the same box, but the animals had the possibility to avoid shocks by moving through the gate to the other side of the box. During testing sessions, all mice were given 30 shuttle escape trials with 30 s intervals between the start of each trial. While on the first five trials, the gate opened at the same time as the shock (0.3 mA), for the 25 remaining trials, the gate opened 2 s after shock onset. Each trial (with a maximal 24 s) duration was terminated when the mouse went into the adjacent compartment. Escape latencies were averaged over 5 trials. Overall escape latencies were computed by averaging escape latencies over 30 trials.

TREK-1 = target: T1, TREK-1 (Mus musculus, UniProt P97438); assay: Whole-cell patch-clamp on CA3 pyramidal neurons in hippocampus brain slices; format: cell-based; parameters: a cellular network that endogenously expresses both TREK-1 and NTSR3/Sortilin; from tissue; host or cells: mouse hippocampal brain slices, CA3 pyramidal neurons; settings: CA3 neurons of kcnk2-/- mice
T1 sequence (P97438 1-426): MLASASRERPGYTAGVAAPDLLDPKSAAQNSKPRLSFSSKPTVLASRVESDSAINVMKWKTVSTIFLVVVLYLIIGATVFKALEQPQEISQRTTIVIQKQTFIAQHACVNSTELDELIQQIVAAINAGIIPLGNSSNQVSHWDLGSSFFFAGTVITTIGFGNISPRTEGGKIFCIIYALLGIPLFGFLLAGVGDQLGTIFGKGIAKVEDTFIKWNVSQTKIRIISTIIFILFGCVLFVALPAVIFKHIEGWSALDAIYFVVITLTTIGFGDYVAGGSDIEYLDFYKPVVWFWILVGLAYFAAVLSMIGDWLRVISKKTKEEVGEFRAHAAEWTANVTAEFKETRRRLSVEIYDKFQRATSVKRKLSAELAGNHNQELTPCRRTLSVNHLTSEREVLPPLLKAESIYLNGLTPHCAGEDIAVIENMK

DRN 5-HT neurons = assay: Rat extracellular unitary recordings of DRN 5-HT neurons; format: in vivo; settings: rats, 10^-5 M in 500 μl bolus i.p.
Experimental: Single-barreled glass micropipettes (recording electrodes) were filled with a 2 M NaCl solution saturated with Fast Green FCF, resulting in an impedance of 2-5 MΩ. Rats were anaesthetized with chloral hydrate (400 mg/kg, i.p., using a 8% solution), and placed in a stereotaxic frame. A burr hole was drilled on the midline 1 mm anterior to lambda. DRN 5-HT neurons were encountered over a distance of 1 mm starting immediately below the ventral border of the Sylvius aqueduct. They were identified using the following criteria: a slow (0.5-2.5 Hz) and regular firing rate and long-duration (0.8-1.2 ms) action potentials, with a positive-negative spike. Spikes were computed by using the Spike 2 software, so that the firing rate was calculated as the mean number of events occurring within a 10 s period. For each neuron, the discharge was monitored during 60 seconds. Each rat received either spadin (10^−5M in a 500 μl bolus) or its vehicle. Starting 30 min after the injection, 2 to 3 successive descents were performed along the DRN, for a total of 8-12 cells recorded per animal. Recordings were performed for a maximal duration of 4 hours post-injection.

mice [2] = assay: Conditioned Suppression of Motility test (CMST); format: in vivo, mouse
Experimental: Mice were placed in a rectangular cage (20×20×27 cm) with a metallic grid floor, located in a sound-proof room illuminated by a 75 W bulb. There were 12 squares drawn on the floor for counting animal displacements. On the first day, the mouse was left in the test cage for 6 min and received 30 electric footshocks of 1.8 mA during 200 ms (one shock every 12 s.). On the second day, the mouse was again placed in the same cage without receiving electric footshocks (conditioned suppression group). Motility changes were observed by counting the number of squares crossed plus the number of climbing in 6 min. Each control group was treated exactly by the same way, except for the absence of the electric foot-shock. In this test, the mice learned to associate a conditioned stimulus (CS: test chamber) with an unconditioned stimulus (US: footshocks). After the pairing of CS and US, a robust associative memory of the CS-US was formed such that the CS alone could elicit a fear response (behavioral immobility or freezing).

mice [3] = assay: Elevated plus-maze; format: in vivo, mouse; settings: spadin i.p. 10^-5 M, diazepam i.p. 0.5 mg/kg
Description: Elevated plus-maze. The apparatus consisted of two open and two enclosed arms of the same size (45×5 cm) with walls 15 cm high. The arms, constructed of black acrylic, radiate from a common central platform (5×5 cm) to form a plus sign. Open arms were arranged opposite to one another, as were closed arms. The maze was elevated to a height of 45 cm above floor level. Each mouse was placed in the central platform facing one of the open arms. The number of entries into the open and closed arms and the time spent on the open and closed arms were recorded during a 5 min test period. Time spent in the unprotected open arms as well as the number of entries in open arms in relation to the total of arm entries are used as experimental indices of anxiety.

APLPRWSGPIGVSWGLR [spadin]
reduced escape latencies after training versus saline (mice [1]): 25.4% | inhibitory effect on arachidonic acid-induced current (TREK-1): totally absent | DRN 5-HT neuron firing rate (DRN 5-HT neurons): 2.66±0.36 Hz | increase of DRN 5-HT neuron firing rate versus saline (DRN 5-HT neurons): 125% | reduction of conditioned suppression of motility (mice [2]; i.v., 10^-6 M): 84.4% | effect in CMST (mice [2]; injection in kcnk2-/- mice): did not induce any change | motility (squares crossed plus climbings) (mice [2]; shocked group, acute spadin): 78±7 counts | time spent in the open arms (mice [3]): had no effect
